# According to ChEMBL document CHEMBL1201862, “PubChem BioAssay data set” (2004):
# Activity calls are given as the source filed them.
# Tests used:
# [1] = biological target: Peroxisome proliferator-activated receptor gamma/Nuclear receptor coactivator 1 (Homo sapiens, UniProt P37231); test: TR-FRET dose response biochemical High Throughput Screening assay for agonists of the steroid receptor coactivator 1 (SRC-1) recruitment by the peroxisome proliferator-activated receptor gamma (PPAR gamma): non-selective agonists. [Related pubchem assays (depositor defined):AID1300, AID1808, AID504735, AID631]; type: protein assay
# Cytochrome P450 2D6 = Cytochrome P450 2D6 (Homo sapiens, UniProt P10635);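 further: CYP2D6 member of a cytochrome P450 panel assay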
# Sequence of Cytochrome P450 2D6 (P10635 whole entry): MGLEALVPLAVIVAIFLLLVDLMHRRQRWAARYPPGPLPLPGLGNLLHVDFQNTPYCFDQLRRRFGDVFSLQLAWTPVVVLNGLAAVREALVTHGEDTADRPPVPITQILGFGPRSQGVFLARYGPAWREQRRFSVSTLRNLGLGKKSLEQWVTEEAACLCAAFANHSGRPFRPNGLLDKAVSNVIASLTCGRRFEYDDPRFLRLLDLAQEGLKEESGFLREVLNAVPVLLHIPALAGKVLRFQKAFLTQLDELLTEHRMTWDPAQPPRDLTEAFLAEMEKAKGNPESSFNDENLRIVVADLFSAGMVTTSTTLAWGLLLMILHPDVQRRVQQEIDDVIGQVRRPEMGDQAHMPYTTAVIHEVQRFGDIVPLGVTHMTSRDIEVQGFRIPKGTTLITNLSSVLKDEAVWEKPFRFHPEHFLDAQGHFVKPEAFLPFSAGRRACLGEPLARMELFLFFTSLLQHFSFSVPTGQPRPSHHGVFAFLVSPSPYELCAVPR
# [2] = biological target: Peroxisome proliferator-activated receptor gamma/Nuclear receptor coactivator 2 (Homo sapiens, UniProt P37231); test: TR-FRET dose response biochemical High Throughput Screening assay for agonists of the steroid receptor coactivator 2 (SRC-2) recruitment by the peroxisome proliferator-activated receptor gamma (PPAR gamma): non-selective agonists. [Related pubchem assays: 1297, 1032 ]; type: functional
# [3] = biological target: Peroxisome proliferator-activated receptor gamma/Nuclear receptor coactivator 3 (Homo sapiens, UniProt P37231); test: TR-FRET dose response biochemical High Throughput Screening assay for agonists of the steroid receptor coactivator 3 (SRC-3) recruitment by the peroxisome proliferator-activated receptor gamma (PPAR gamma): non-selective agonists. [Related pubchem assays: 1301 (Confirmation screen.), 1048 (Primary screen.)]; type: functional
# [4] = inhibitors of HIV Env-driven cell fusion, dose response, cherry-pick (AID 652057); type: functional, cell-based
# Cytochrome P450 1A2 = biological target: T1, Cytochrome P450 1A2 (Homo sapiens, UniProt P05177);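 further: PubChem cytochrome P450 panel assay, CYP1A2 panel member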
# T1 sequence (P05177 whole entry): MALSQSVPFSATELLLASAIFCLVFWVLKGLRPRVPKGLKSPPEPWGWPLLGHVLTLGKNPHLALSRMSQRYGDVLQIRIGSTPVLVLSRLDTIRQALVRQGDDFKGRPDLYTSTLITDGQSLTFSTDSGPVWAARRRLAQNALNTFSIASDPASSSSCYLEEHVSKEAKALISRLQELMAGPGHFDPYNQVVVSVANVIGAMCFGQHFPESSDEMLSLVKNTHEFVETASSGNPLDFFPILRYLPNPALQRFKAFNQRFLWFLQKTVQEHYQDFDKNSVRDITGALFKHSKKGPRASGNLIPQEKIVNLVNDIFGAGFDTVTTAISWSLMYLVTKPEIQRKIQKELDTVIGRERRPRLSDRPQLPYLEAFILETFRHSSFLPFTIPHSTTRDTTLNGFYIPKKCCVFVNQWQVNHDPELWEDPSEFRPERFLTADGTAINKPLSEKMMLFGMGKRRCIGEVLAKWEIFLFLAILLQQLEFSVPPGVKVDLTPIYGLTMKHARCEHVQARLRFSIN
# [5] = off-target signal loss in HeLa-CEM21 co-culture – HeLa F-luc CTL cells, cherry-picked, counter-screen for HIV-1 Env fusion inhibitor project, dose response (AID 652040); type: functional, cell-based;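 further: potency for signal decrease marking cytotoxic or nonspecific inhibition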
# [6] = ZM109 Env clade C HIV-1 fusion inhibitors, dose response, HeLa effector, CEM target cells, luciferase, cherry-pick (AID 652058); type: functional, cell-based
# [7] = Luminescence Cell-Based Dose Retest to Confirm Inhibitors of Cancer Stem Cells. [Related pubchem assays (depositor defined):AID2717, AID2721]; type: functional; conditions: Homo sapiens
# [8] = cytotoxicity in HEK-293T cells, dose response, cytotoxicity control for TCR NF-kB inhibitor project, luminescence, T-cell screen hits (AID 489026); type: functional, cell-based;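 further: cells exposed to compound about 14 hours before the viability readout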
# [9] = inhibitors of clade B AD8 Env fusion, dose response, cell-based, cherry-pick (AID 652062); type: functional;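 further: luciferase signal from cell-cell fusion driven by HIV-1 clade B AD8 Env; potency is for inhibitors of fusion seen as a drop in luminescence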
# [10] = biological target: Voltage-gated inwardly rectifying potassium channel KCNH2 (Homo sapiens, UniProt Q12809); conditions: Potency;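 further: confirmatory quantitative high-throughput screen measuring inhibition of hERG channel activity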
# Sequence of Voltage-gated inwardly rectifying potassium channel KCNH2 (Q12809 whole entry): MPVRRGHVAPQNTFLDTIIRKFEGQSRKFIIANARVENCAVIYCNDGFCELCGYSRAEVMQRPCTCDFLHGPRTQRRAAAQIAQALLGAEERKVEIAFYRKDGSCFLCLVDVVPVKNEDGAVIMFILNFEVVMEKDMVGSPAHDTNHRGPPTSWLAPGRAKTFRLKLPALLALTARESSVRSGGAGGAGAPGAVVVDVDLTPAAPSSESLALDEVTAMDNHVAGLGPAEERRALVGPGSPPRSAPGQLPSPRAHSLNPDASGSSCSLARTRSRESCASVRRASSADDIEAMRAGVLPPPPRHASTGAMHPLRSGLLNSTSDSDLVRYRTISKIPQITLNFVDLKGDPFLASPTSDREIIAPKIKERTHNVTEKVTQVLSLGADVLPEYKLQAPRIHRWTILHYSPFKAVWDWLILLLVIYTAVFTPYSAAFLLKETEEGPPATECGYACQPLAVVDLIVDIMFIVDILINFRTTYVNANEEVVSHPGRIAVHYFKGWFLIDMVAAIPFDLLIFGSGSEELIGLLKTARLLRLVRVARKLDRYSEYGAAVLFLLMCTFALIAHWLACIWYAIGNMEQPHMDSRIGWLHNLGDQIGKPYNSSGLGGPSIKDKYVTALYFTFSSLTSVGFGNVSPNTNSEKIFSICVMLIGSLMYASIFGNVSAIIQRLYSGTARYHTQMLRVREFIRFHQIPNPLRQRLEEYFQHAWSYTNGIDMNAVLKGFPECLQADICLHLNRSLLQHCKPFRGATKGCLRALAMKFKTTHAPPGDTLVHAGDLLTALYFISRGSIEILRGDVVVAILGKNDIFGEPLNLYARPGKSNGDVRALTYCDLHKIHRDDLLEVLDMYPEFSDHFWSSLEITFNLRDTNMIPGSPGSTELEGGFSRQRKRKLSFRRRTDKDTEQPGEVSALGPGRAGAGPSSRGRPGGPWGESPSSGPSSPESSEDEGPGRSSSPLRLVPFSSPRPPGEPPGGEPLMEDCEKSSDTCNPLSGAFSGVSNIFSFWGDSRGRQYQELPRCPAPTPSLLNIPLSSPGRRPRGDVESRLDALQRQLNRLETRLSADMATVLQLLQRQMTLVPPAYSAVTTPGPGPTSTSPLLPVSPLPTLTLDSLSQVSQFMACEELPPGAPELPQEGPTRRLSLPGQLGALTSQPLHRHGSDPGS
# [11] = cytotoxicity toward NIH3T3 fibroblasts, dose response, counter-screen, cell-based, ATP luminescence, mouse fibroblasts (AID 2010); type: functional;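 further: cells exposed to compound for about 90 hours before reading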
# [12] = inhibitors of intracellular T. cruzi replication, confirmation, NIH3T3 host cells, beta-gal luminescence (AID 2044); type: functional, cell-based;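 further: intracellular parasites grown in NIH/3T3 mouse fibroblasts as host cells; luminescent beta-galactosidase reporter signal from transgenic T. cruzi replicating inside host cells; inhibitors lower the luminescence signal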
# [13] = biological target: T2, Microphthalmia-associated transcription factor (Homo sapiens, UniProt O75030); test: TRPM1 promoter luciferase signal decrease, dose response, MITF inhibitor project, cell-based, SK-MEL-5, cherry-picked, set 3 (AID 493073); type: functional
# T2 sequence (O75030 whole entry): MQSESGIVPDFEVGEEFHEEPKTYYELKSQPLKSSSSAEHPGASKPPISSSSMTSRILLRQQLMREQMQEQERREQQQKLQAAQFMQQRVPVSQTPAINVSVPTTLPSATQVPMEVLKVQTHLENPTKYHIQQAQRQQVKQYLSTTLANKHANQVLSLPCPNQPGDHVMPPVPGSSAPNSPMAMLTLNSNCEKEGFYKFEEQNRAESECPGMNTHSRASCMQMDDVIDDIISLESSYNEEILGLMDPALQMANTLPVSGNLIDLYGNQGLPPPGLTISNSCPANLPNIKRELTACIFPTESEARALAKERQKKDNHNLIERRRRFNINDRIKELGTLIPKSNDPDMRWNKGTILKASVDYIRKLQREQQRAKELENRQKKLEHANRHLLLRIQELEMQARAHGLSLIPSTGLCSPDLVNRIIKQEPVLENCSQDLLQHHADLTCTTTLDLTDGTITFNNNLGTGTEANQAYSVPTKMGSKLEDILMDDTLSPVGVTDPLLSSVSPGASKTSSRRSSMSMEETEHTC
# Beta-galactosidase = Beta-galactosidase (Escherichia coli, UniProt Q8VNN2); test: beta-galactosidase enzyme inhibitors and activators, dose response, artefact control for CCR6 antagonist project, biochemical, E. coli enzyme, set 3 (AID 504712); type: functional
# Sequence of Beta-galactosidase (Q8VNN2 whole entry): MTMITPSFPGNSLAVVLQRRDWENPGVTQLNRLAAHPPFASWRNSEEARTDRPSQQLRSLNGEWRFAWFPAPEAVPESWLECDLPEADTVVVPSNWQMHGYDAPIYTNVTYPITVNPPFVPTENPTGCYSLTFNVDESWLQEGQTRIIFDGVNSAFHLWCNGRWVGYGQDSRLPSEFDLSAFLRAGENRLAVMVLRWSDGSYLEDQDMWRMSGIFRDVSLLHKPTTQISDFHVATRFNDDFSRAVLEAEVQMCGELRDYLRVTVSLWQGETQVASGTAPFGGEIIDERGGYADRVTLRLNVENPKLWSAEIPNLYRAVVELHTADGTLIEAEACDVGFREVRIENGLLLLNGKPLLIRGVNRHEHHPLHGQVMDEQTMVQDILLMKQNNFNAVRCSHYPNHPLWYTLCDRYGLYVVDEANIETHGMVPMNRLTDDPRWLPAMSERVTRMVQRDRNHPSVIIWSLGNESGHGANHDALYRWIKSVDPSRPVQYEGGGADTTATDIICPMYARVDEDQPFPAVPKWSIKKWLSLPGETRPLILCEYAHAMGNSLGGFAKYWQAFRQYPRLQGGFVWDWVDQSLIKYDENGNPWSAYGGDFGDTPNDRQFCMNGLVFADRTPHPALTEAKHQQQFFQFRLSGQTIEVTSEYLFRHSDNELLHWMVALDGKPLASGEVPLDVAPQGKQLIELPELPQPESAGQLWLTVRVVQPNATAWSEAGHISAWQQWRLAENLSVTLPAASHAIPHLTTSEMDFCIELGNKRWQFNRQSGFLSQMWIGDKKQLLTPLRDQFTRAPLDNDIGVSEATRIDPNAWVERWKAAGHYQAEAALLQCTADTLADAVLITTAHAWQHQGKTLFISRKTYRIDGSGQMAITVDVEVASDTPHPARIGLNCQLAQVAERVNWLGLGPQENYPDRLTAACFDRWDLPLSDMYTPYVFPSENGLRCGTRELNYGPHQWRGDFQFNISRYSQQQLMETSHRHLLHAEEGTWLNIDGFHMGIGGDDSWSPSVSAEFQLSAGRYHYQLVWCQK
# [14] = biological target: DNA dC->dU-editing enzyme APOBEC-3A (Homo sapiens, UniProt P31941); test: Dose Response confirmation of small molecule APOBEC3A DNA Deaminase Inhibitors via a fluorescence-based single-stranded DNA deaminase assay. [Related pubchem assays (depositor defined):AID493011, AID493024]; type: functional
# Sequence of DNA dC->dU-editing enzyme APOBEC-3A (P31941 whole entry): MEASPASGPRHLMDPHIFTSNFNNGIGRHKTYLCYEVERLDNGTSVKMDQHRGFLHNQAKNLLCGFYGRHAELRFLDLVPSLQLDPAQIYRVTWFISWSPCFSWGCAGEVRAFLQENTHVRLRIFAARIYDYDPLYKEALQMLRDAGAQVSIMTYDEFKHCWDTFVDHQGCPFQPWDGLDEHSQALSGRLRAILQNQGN
# [15] = biological target: DNA dC->dU-editing enzyme APOBEC-3G (Homo sapiens, UniProt Q9HC16); type: functional;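 further: Dose-response counterscreen measuring inhibition of APOBEC3G DNA deaminase activity, run while confirming APOBEC3A inhibitors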
# Sequence of DNA dC->dU-editing enzyme APOBEC-3G (Q9HC16 whole entry): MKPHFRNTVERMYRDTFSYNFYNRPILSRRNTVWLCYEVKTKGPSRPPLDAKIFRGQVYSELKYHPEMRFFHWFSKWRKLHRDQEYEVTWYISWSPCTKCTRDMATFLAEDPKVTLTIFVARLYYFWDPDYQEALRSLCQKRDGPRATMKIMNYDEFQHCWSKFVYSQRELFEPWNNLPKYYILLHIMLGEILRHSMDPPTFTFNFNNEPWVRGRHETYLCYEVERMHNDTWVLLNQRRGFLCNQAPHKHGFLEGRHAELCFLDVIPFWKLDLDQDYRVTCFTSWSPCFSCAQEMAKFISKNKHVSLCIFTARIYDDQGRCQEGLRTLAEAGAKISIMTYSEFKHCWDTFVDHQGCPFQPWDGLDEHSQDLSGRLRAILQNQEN
# SUMO-activating enzyme [16] = biological target: T3, SUMO-activating enzyme (Homo sapiens, UniProt Q9UBT2); test: SUMOylation inhibitor hit validation, confirmation, SUMOylation inhibitor project, biochemical, AlphaScreen (AID 2018); type: functional
# T3 sequence (Q9UBE0 whole entry): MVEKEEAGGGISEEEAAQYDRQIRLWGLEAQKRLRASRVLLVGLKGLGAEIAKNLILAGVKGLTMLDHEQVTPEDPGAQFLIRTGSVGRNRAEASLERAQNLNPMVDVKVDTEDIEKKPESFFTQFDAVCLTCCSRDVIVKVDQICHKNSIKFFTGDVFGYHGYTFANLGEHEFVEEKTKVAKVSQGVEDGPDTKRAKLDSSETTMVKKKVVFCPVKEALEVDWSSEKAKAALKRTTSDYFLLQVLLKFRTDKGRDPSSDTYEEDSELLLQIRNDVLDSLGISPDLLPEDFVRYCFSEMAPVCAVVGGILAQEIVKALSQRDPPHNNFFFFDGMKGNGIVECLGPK
# T3 sequence (Q9UBT2 whole entry): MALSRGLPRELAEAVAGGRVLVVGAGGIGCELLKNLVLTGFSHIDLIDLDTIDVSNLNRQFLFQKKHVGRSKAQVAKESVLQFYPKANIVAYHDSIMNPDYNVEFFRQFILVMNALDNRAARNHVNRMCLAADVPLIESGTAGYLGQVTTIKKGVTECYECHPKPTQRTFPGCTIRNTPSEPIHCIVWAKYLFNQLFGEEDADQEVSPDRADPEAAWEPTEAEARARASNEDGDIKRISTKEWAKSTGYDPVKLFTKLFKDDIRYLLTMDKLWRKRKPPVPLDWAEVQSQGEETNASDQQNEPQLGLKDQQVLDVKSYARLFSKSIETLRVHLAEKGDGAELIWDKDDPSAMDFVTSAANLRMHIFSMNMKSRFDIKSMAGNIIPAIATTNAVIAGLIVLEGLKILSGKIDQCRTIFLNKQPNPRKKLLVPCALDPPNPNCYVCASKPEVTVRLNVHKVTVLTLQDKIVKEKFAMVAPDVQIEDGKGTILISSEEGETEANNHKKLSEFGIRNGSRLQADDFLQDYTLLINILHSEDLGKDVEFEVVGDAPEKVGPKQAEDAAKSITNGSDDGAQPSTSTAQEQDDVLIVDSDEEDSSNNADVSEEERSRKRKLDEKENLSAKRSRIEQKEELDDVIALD
# Vero [17] = test: host cell cytotoxicity of antiviral hits, dose response, cytotoxicity control for West Nile virus antiviral project, secondary assay (AID 1650); type: functional; conditions: Chlorocebus sabaeus
# SUMO-activating enzyme [18] = biological target: T3, SUMO-activating enzyme; test: inhibitors of in vitro SUMOylation cascade, primary screen, biochemical, HTRF, uHTS (AID 2006); type: protein-complex assay
# [19] = biological target: Induced myeloid leukemia cell differentiation protein Mcl-1 (Homo sapiens, UniProt Q07820); type: functional
# Nonstructural protein 1 = Nonstructural protein 1 (Influenza A virus, UniProt Q194T2); type: functional, Influenza A virus (A/California/07/2009(H1N1))
# Sequence of Nonstructural protein 1 (Q194T2 whole entry, the tested form may be a part): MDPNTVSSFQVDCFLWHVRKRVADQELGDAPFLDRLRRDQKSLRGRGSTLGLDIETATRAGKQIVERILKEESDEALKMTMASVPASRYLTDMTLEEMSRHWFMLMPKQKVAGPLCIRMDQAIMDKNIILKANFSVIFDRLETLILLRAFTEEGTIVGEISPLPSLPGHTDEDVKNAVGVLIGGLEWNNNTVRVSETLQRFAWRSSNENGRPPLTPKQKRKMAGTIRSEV
# [20] = biological target: T4, Carboxy-terminal domain RNA polymerase II polypeptide A small phosphatase 1 (Homo sapiens, UniProt Q9GZU7); test: inhibitors of CTDSP1, concentration-response testing, biochemical assay, absorbance-based, actives from ultra-high-throughput screening (AID 540297); type: functional
# T4 sequence (Q9GZU7 whole entry): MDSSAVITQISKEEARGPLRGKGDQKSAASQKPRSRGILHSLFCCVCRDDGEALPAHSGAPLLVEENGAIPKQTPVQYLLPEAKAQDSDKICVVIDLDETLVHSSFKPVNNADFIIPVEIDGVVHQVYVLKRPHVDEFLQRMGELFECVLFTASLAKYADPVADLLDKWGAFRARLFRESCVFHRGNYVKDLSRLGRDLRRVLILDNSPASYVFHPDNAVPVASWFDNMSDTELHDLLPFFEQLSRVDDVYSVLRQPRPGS
# Genome polyprotein = Genome polyprotein (dengue virus type 2, UniProt P29990); test: Dengue-2 NS5 methyltransferase inhibitors, primary screen, biochemical, confirmation dose response (AID 588689); type: functional
# [21] = system: Streptococcus sp. 'group A'; test: growth inhibition of control SK(-) GAS strain, dose response, counter-screen for streptokinase expression inhibitor project, luminescence, kanamycin, BacTiterGlo, confirmation (AID 1900); type: functional, organism-based
# Streptokinase A = biological target: T5, Streptokinase A (Streptococcus pyogenes serotype M1, UniProt P10520); test: S. pyogenes streptokinase expression inhibitors, potency, dose response, plasminogen activation absorbance, OD405 (AID 1914); type: functional, Streptococcus pyogenes M1 GAS;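 further: secreted streptokinase activity via plasminogen activation per viability signal from cell pellet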
# T5 sequence (P10520 whole entry): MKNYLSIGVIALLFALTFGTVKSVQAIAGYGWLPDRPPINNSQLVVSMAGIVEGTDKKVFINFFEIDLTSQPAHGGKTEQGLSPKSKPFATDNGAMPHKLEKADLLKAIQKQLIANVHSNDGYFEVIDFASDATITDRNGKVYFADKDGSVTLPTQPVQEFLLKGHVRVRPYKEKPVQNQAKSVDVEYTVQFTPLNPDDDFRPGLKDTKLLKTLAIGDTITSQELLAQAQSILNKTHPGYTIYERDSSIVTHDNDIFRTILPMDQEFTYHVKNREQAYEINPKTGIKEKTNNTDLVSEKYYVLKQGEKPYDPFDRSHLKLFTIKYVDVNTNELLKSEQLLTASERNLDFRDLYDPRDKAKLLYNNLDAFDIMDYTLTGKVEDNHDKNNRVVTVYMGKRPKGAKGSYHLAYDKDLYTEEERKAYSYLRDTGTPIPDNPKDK
# Vero [22] = test: Vero cell cytotoxicity, cytotoxicity control for flavivirus capping enzyme inhibitors (AID 588742); type: functional; conditions: Chlorocebus sabaeus
# Streptococcus = test: Group A Streptococcus viability loss, dose response, counter-screen for streptokinase expression inhibitor project, luminescence, BacTiterGlo (AID 1915); type: functional, organism-based;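 further: potency for reduction of bacterial viability or growth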
# Cytochrome P450 2C9 = Cytochrome P450 2C9 (Homo sapiens, UniProt P11712)
# Cytochrome P450 3A4 = Cytochrome P450 3A4 (Homo sapiens, UniProt P08684);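 further: CYP3A4 tested as one member of a cytochrome P450 panel screen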
# Sequence of Cytochrome P450 3A4 (P08684 whole entry): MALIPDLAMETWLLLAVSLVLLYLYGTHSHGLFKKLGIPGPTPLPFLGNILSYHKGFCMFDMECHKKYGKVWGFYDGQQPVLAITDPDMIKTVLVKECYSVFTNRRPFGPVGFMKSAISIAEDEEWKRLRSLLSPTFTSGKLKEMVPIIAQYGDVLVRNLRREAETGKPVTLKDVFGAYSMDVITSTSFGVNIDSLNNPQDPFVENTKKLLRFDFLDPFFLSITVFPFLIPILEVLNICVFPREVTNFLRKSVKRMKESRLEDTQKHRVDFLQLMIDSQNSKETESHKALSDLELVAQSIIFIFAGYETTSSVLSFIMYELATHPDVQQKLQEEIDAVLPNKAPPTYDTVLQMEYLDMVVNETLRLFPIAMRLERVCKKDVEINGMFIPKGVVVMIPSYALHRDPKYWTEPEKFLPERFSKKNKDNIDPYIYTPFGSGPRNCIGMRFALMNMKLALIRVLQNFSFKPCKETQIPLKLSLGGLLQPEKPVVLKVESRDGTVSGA
structure (smiles),measurement,setting,value
CCOc1ccc2c(c1)nc(SCC(=O)c1ccc(Br)s1)n2C,EC50,[1],> 79.4 µM (inactive)
same,AC50,Cytochrome P450 2D6,12.6 µM (inconclusive)
same,EC50,[2],22.9 µM (not active)
same,EC50,[3],> 79.4 µM (not active)
O=C(Nc1ccc(C(F)(F)F)cc1)c1cccn(Cc2ccc3c(c2)OC(F)(F)O3)c1=O,AC50,[4],22.5 µM (active)
same,AC50,Cytochrome P450 1A2,25.1 µM (inconclusive)
same,AC50,[5],50.7 µM (active)
same,AC50,[6],0.59 µM (active)
same,AC50,[7],3.68 µM (active)
same,IC50,[8],> 80 µM (inactive)
same,AC50,[9],6 µM (active)
CN1CCC23CCCC[C@H]2C1Cc1ccc(O)cc13 (some centres not stated),AC50,[10],2.51 µM (inconclusive)
CN(Cc1ccccc1)C1=CC(=[N+]2CCCC2)CC(C)(C)C1,EC50,[11],> 60 µM (not active)
same,EC50,[12],0.171 µM (active)
same,AC50,[13],1.55 µM (active)
same,IC50,[8],> 80 µM (inactive)
O=C(NC(=S)N(CCc1ccccc1)CCc1ccccc1)c1ccco1,IC50,Beta-galactosidase,> 66.6 µM (inactive)
CCCCn1c(N)c(C(=S)NC(=O)CC(C)C)c(=O)n(C)c1=O,IC50,Beta-galactosidase,> 66.6 µM (inactive)
Cn1nnnc1SCC(=O)Nc1ccc(Br)cc1Cl,IC50,[14],5.35 µM (active)
same,IC50,[15],9.75 µM (active)
C=C(C)COc1ccc(-c2[nH]nc(C)c2-c2ccc(OC)c(OC)c2)c(O)c1,AC50,[7],1.36 µM (active)
same,IC50,[8],44.6 µM (inactive)
O=C(Nc1ccc(S(=O)(=O)N2CCCCC2)cc1)c1ccc(CN2CCOCC2)cc1,IC50,[8],27.2 µM (inactive)
CC1=C(C(=O)Nc2ccccc2)C(c2ccc(C)cc2)NC(Nc2nc3ccccc3o2)=N1 (configuration not stated),IC50,SUMO-activating enzyme [16],20.2 µM (active)
same,EC50,[11],22.3 µM (active)
same,EC50,[12],0.982 µM (active)
same,CC50,Vero [17],> 100 µM (active)
same,IC50,SUMO-activating enzyme [18],4.07 µM (active)
N#Cc1c2nc3ccccc3nc2n2cc(NC(=O)c3ccc(F)cc3)ccc12,IC50,SUMO-activating enzyme [16],1.8 µM (active)
same,IC50,[19],1.57 µM (active)
same,IC50,SUMO-activating enzyme [18],2.96 µM (active)
COc1ccc(-n2nc([N+](=O)[O-])c(NCCC3=CCCCC3)[n+]2[O-])cc1,EC50,[11],> 60 µM (not active)
same,EC50,[12],0.534 µM (active)
same,IC50,Nonstructural protein 1,41.3 µM (active)
CCN(CC)c1ccc(NC(=O)CN2CCN(CC(=O)Nc3ccccc3OC)CC2)cc1,IC50,Nonstructural protein 1,79.6 µM (active)
C[N+]1(CC(=O)OCCCc2ccccc2)CCOCC1,IC50,[20],6.39 µM (active)
same,IC50,[14],1.27 µM (active)
same,AC50,Cytochrome P450 2D6,12.6 µM (inconclusive)
same,IC50,[15],1.93 µM (active)
CC(=NNc1ccc2ccccc2n1)c1ccccc1O,IC50,Beta-galactosidase,> 66.6 µM (inactive)
CCCCN(C(=O)c1cnccn1)c1c(N)n(CCC)c(=O)[nH]c1=O,IC50,[14],13.7 µM (active)
same,IC50,[15],15.5 µM (active)
Brc1ccc(Oc2ccc(Br)cc2Br)c(Br)c1,AC50,[10],17.8 µM (inconclusive)
C[C@H]1COC2=C1C(=O)C(=O)c1c2ccc2c1CCCC2(C)C [CRYPTOTANSHINONE],IC50,Genome polyprotein,90.1 µM (active)
same,EC50,[21],5.17 µM (active)
same,EC50,Streptokinase A,14.8 µM (active)
same,CC50,Vero [22],33.4 µM (active)
same,EC50,Streptococcus,14.1 µM (active)
C/C=C1/C(=O)C[C@H]2[C@@H]3CCC4=CC(=O)CC[C@]4(C)[C@H]3CC[C@]12C [E-GUGGULSTERONE],AC50,[10],17.8 µM (inconclusive)
COc1ccc(-n2nc(C(F)(F)F)cc2-c2ccc(Cl)cc2)cc1 [SC-560],AC50,Cytochrome P450 2C9,25.1 µM (inconclusive)
same,AC50,Cytochrome P450 3A4,39.8 µM (inconclusive)
same,AC50,[10],31.6 µM (inconclusive)
